From patent US9730914B2, “3,5-diaminopyrazole kinase inhibitors” (Axikin Pharmaceuticals, Inc., priority 2014, dated 2017)

Tests used:
[1] = target: T1, kinase domain protein of RC kinase (RCK) (Homo sapiens, UniProt Q56UN5); assay: Kinase competition binding assay (Kd, qPCR readout), RC kinase; conditions: Kd class, read-out: RCK Activity Level
T1 construct: made in house; host or cells: E. coli BL21-derived host (T7 phage) or HEK-293
T1 sequence (Q56UN5 1061-1324 limits assumed): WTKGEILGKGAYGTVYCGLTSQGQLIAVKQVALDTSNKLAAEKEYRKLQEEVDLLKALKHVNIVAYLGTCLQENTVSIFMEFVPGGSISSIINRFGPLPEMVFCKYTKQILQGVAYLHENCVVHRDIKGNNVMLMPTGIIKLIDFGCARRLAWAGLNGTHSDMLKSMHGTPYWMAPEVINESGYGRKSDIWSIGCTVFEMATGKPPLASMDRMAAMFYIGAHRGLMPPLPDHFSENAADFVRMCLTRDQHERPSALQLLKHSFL
Procedure, shortened: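 Competition binding: DNA-tagged kinase (T7 phage or HEK-293-expressed) plus immobilized biotinylated ligand beads and compound, 1 h at room temperature, 1% DMSO. Bead-bound kinase eluted and quantified by qPCR. Kd from 11-point 3-fold dilution, top 30,000 nM, retested lower if below 0.5 nM.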

JAK2 = target: T2, JAK2 (Homo sapiens, UniProt O60674); assay: Kinase competition binding assay (Kd, qPCR readout), JAK2; conditions: for Kd: Kd class, JAK2, read-out: JAK2 Activity Level; for RCK:JAK2 selectivity ratio: ratio Kd (JAK2): Kd(RCK)
T2 construct: made in house; host or cells: E. coli BL21-derived host (T7 phage) or HEK-293
Procedure, shortened: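 Competition binding: DNA-tagged kinase (T7 phage or HEK-293-expressed), immobilized biotinylated ligand beads and compound in SeaBlock/PBS/Tween/DTT buffer, 1 hour at room temperature; bound kinase eluted and quantified by qPCR. Kd from 11-point 3-fold dilution, top 30,000 nM typically, final DMSO 1%.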

JAK3 = target: T3, JAK3 (Homo sapiens, UniProt P52333); assay: Kinase competition binding assay (Kd, qPCR readout), JAK3; conditions: for Kd: read-out: JAK3 Activity Level; for RCK:JAK3 selectivity ratio: ratio Kd (JAK3): Kd (RCK)
T3 construct: made in house; host or cells: E. coli BL21-derived host (T7 phage) or HEK-293
Procedure, shortened: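 Competition binding in which kinase, either T7 phage-tagged or HEK-293-expressed and DNA-tagged, was exposed to immobilized biotinylated ligand and test compound for 1 h at room temperature. Bead-bound kinase was eluted and quantified by qPCR. Kd came from 11-point 3-fold dilutions, top concentration 30,000 nM and 1% DMSO, repeated lower if below 0.5 nM.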

T3 sequence (P52333 811-1124 limits assumed): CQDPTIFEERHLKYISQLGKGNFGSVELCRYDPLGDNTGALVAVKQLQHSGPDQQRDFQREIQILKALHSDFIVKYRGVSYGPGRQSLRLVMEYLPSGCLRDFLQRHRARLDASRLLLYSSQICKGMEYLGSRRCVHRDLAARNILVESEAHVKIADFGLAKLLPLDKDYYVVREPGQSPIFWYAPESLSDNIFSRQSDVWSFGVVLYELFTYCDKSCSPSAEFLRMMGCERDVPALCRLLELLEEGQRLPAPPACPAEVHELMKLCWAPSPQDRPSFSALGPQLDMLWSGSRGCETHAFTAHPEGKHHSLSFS
T2 sequence (O60674 840-1132 limits assumed): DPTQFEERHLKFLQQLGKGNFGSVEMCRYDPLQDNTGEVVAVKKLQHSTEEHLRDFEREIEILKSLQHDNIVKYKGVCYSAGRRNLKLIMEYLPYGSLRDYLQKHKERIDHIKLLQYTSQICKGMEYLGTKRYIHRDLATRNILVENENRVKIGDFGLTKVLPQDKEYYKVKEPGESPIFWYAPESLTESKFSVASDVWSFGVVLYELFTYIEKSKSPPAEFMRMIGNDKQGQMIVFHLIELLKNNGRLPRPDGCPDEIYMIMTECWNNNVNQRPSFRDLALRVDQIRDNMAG

Row | Structure (SMILES) | Kd [1] [nM] | Kd (JAK2) [nM] | RCK:JAK2 selectivity ratio (JAK2) | Kd (JAK3; Kd class, JAK3) [nM] | RCK:JAK3 selectivity ratio (JAK3) | JAK3 Activity Level (JAK3; Kd class, JAK3)
1 | Cc1cc(CNc2[nH]nc(Nc3ccc(N4CCCCC4)cn3)c2C(N)=O)cc(C)c1O [Compound 33, 5-((4-hydroxy-3,5-dimethylbenzyl)amino)-3-((5-(piperidin-1-yl)pyridin-2-yl)amino)-1H-pyrazole-4-carboxamide] | 50 to 100 | 100 to 1000 | C (C represents 1<Kd (JAK2): Kd (RCK)<10) | > 1000 | B (B represents 10<Kd (JAK3): Kd (RCK)<100) | –
2 | NC(=O)c1c(Nc2ccc(N3CCS(=O)(=O)CC3)cc2)n[nH]c1NCc1ccc(O)cc1 [reference compound] | < 50 | < 50 | D (D represents Kd(JAK2): Kd (RCK)<1) | < 50 | D (D represents Kd (JAK3): Kd(RCK)<1) | –
3 | CC(C)N1CCN(c2ccc(Nc3n[nH]c(NCc4ccc(O)cc4)c3C(N)=O)cc2Cl)CC1 [reference compound] | < 50 | < 50 | C (C represents 1<Kd (JAK2): Kd (RCK)<10) | < 50 | C (C represents 1<Kd (JAK3): Kd (RCK)<10) | –
4 | Cc1cc(CNc2[nH]nc(Nc3ccc(N4CCOCC4)nc3)c2C(N)=O)cc(C)c1O [Compound 7, 5-((4-hydroxy-3,5-dimethylbenzyl)amino)-3-((6-morpholinopyridin-3-yl)amino)-1H-pyrazole-4-carboxamide] | 50 to 100 | 100 to 1000 | C (C represents 1<Kd (JAK2): Kd (RCK)<10) | > 1000 | B (B represents 10<Kd (JAK3): Kd (RCK)<100) | –
5 | Cc1cc(Nc2n[nH]c(NCc3ccc(O)cc3)c2C(N)=O)ccc1N1CCCCC1 [reference compound] | < 50 | < 50 | C (C represents 1<Kd (JAK2): Kd (RCK)<10) | 50 to 100 | C (C represents 1<Kd (JAK3): Kd (RCK)<10) | –
6 | Cc1cc(Nc2n[nH]c(NCc3ccc(O)cc3)c2C(N)=O)cnc1N1CCOCC1 [reference compound] | < 50 | < 50 | D (D represents Kd(JAK2): Kd (RCK)<1) | < 50 | C (C represents 1<Kd (JAK3): Kd (RCK)<10) | –
7 | NC(=O)c1c(Nc2ccc(-c3cc[nH]n3)cc2)n[nH]c1NCc1ccc(O)cc1 [reference compound] | < 50 | < 50 | D (D represents Kd(JAK2): Kd (RCK)<1) | < 50 | C (C represents 1<Kd (JAK3): Kd (RCK)<10) | –
8 | COc1ccc(Nc2n[nH]c(NCc3cc(C)c(O)c(C)c3)c2C(N)=O)cc1 [Compound 20, 5-((4-hydroxy-3,5-dimethylbenzyl)amino)-3-((4-methoxyphenyl)amino)-1H-pyrazole-4-carboxamide] | 100 to 1000 | > 1000 | C (C represents 1<Kd (JAK2): Kd (RCK)<10) | > 1000 | B (B represents 10<Kd (JAK3): Kd (RCK)<100) | –
9 | COc1ccccc1C(=O)Nc1ccc(Nc2n[nH]c(NCc3cc(C)c(O)c(C)c3)c2C(N)=O)cc1 [Compound 55, 5-((4-hydroxy-3,5-dimethylbenzyl)amino)-3-((4-(2-methoxybenzamido)phenyl)amino)-1H-pyrazole-4-carboxamide] | 100 to 1000 | > 1000 | B (B represents 10<Kd(JAK2): Kd (RCK)<100) | > 1000 | B (B represents 10<Kd (JAK3): Kd (RCK)<100) | –
10 | CC1CCN(c2ccc(Nc3n[nH]c(NCc4ccc(O)cc4)c3C(N)=O)cc2)CC1 [reference compound] | < 50 | < 50 | D (D represents Kd(JAK2): Kd (RCK)<1) | 50 to 100 | C (C represents 1<Kd (JAK3): Kd (RCK)<10) | –
11 | Cc1cc(CNc2[nH]nc(Nc3ccc(N4C[C@@H](C)O[C@@H](C)C4)nc3)c2C(N)=O)cc(C)c1O [Compound 26] | 100 to 1000 | > 1000 | B (B represents 10<Kd(JAK2): Kd (RCK)<100) | > 1000 | B (B represents 10<Kd (JAK3): Kd (RCK)<100) | –
12 | Cc1cc(CNc2[nH]nc(Nc3ccc(N4CCOCC4)c(Cl)c3)c2C(N)=O)cc(C)c1O [Compound 2, 3-((3-chloro-4-morpholinophenyl)amino)-5-((4-hydroxy-3,5-dimethylbenzyl)amino)-1H-pyrazole-4-carboxamide] | < 50 | 100 to 1000 | B (B represents 10<Kd(JAK2): Kd (RCK)<100) | > 1000 | A (A represents Kd (JAK3): Kd (RCK)>100) | –
13 | CC(C)(C)c1ccc(Nc2n[nH]c(NCc3ccc(O)cc3)c2C(N)=O)cc1 [reference compound] | < 50 | < 50 | D (D represents Kd(JAK2): Kd (RCK)<1) | 50 to 100 | C (C represents 1<Kd (JAK3): Kd (RCK)<10) | –
14 | Cc1cc(CNc2[nH]nc(Nc3ccc(-c4cccnc4)cc3)c2C(N)=O)cc(C)c1O [Compound 16, 5-((4-hydroxy-3,5-dimethylbenzyl)amino)-3-((4-(pyridin-3-yl)phenyl)amino)-1H-pyrazole-4-carboxamide] | 50 to 100 | > 1000 | B (B represents 10<Kd(JAK2): Kd (RCK)<100) | > 1000 | B (B represents 10<Kd (JAK3): Kd (RCK)<100) | –
15 | COc1cccc(C(=O)Nc2ccc(Nc3n[nH]c(NCc4ccc(O)cc4)c3C(N)=O)cc2)c1 [reference compound] | < 50 | < 50 | C (C represents 1<Kd (JAK2): Kd (RCK)<10) | < 50 | B (B represents 10<Kd (JAK3): Kd (RCK)<100) | –
16 | NC(=O)c1c(Nc2ccc(-c3cnco3)cc2)n[nH]c1NCc1ccc(O)cc1 [reference compound] | < 50 | < 50 | C (C represents 1<Kd (JAK2): Kd (RCK)<10) | < 50 | C (C represents 1<Kd (JAK3): Kd (RCK)<10) | –
17 | Cc1cc(CNc2[nH]nc(Nc3ccc(N4CCN(c5ncccn5)CC4)cc3)c2C(N)=O)cc(C)c1O [Compound 44, 5-((4-hydroxy-3,5-dimethylbenzyl)amino)-3-((4-(4-(pyrimidin-2-yl)piperazin-1-yl)phenyl)amino)-1H-pyrazole-4-carboxamide] | 100 to 1000 | > 1000 | B (B represents 10<Kd(JAK2): Kd (RCK)<100) | > 1000 | B (B represents 10<Kd (JAK3): Kd (RCK)<100) | –
18 | CN(C)C1CCN(c2ccc(Nc3n[nH]c(NCc4ccc(O)cc4)c3C(N)=O)cc2)CC1 [reference compound] | < 50 | < 50 | D (D represents Kd(JAK2): Kd (RCK)<1) | < 50 | D (D represents Kd (JAK3): Kd(RCK)<1) | –
19 | NC(=O)c1c(Nc2ccc(N3CCOCC3)nc2)n[nH]c1NCc1ccc(O)cc1 [reference compound] | < 50 | < 50 | D (D represents Kd(JAK2): Kd (RCK)<1) | < 50 | C (C represents 1<Kd (JAK3): Kd (RCK)<10) | –
20 | Cc1cc(CNc2[nH]nc(Nc3ccc(-n4cccc4)cc3)c2C(N)=O)cc(C)c1O [Compound 6, 3-((4-(1H-pyrrol-1-yl)phenyl)amino)-5-((4-hydroxy-3,5-dimethylbenzyl)amino)-1H-pyrazole-4-carboxamide] | < 50 | > 1000 | A (A represents Kd (JAK2): Kd (RCK)>100) | > 1000 | A (A represents Kd (JAK3): Kd (RCK)>100) | –
21 | NC(=O)c1c(Nc2ccc(N3CCC(Cl)CC3)cc2)n[nH]c1NCc1ccc(O)cc1 [reference compound] | < 50 | < 50 | D (D represents Kd(JAK2): Kd (RCK)<1) | < 50 | C (C represents 1<Kd (JAK3): Kd (RCK)<10) | –
22 | Cc1cc(Nc2n[nH]c(NCc3cc(C)c(O)c(C)c3)c2C(N)=O)cnc1N1CCN(C)CC1 [Compound 14, 5-((4-hydroxy-3,5-dimethylbenzyl)amino)-3-((5-methyl-6-(4-methylpiperazin-1-yl)pyridin-3-yl)amino)-1H-pyrazole-4-carboxamide] | > 1000 | > 1000 | C (C represents 1<Kd (JAK2): Kd (RCK)<10) | > 1000 | B (B represents 10<Kd (JAK3): Kd (RCK)<100) | –
23 | NC(=O)c1c(Nc2ccc(N3CCOCC3)cn2)n[nH]c1NCc1ccc(O)cc1 [reference compound] | < 50 | < 50 | D (D represents Kd(JAK2): Kd (RCK)<1) | – | D (D represents Kd (JAK3): Kd(RCK)<1) | .A
